Data from paper PMC5727211, “Development of Erasin: a chromone-based STAT3 inhibitor which induces apoptosis in Erlotinib-resistant lung cancer cells” (Scientific Reports, 2017).
“Also recorded” adds a separate entry of the source.

Key:
[1] = tested on: STAT3 Tyr705 phosphorylation; experiment: Western Blot, IL-6-stimulated STAT3 Tyr705 phosphorylation in HepG2 cells; type: cell-based, human; settings: 1 h pre-treatment, 30 min 50 ng/mL IL-6
Excerpt: (§1) An inhibitor of a STAT SH2 domain prevents phosphorylation of STATs at this conserved tyrosine residue, thereby inhibiting STAT-mediated signal transduction (Fig. 3a). Consistent with its activity in the FP assay, 8 inhibited interleukin (IL)-6-stimulated STAT3 Tyr705 phosphorylation in HepG2 cells in a dose-dependent manner (Fig. 3b). […] In contrast, tyrosine phosphorylation of STAT5 in K562 cells is not inhibited (Fig. 3d). The activity profile in cells thus reflects the selectivity profile seen in vitro (Fig. 2a, Table 1), supporting the notion that cellular activities are mediated by functional inhibition of the STAT SH2 domains.
(§2) HepG2 cells were plated in 6-well plates (Corning #3516) and allowed to reach approximately 60% confluence. The medium was then replaced with serum-free medium for 24 h. […]
(§3) Lysates were separated on a polyacrylamide gel under denaturing conditions, and transferred to a nitrocellulose membrane. STAT phosphorylation was assessed using rabbit monoclonal antibodies against the phosphorylated forms only of STAT1, STAT3 or STAT5 (Cell Signaling, 1:1000) with secondary antibody swine anti-rabbit HRP from Dako, 1:3000), followed by reblotting with rabbit monoclonal antibodies against total STAT1, STAT3 or STAT5 (Cell Signaling), and subsequently β-actin loading control. […]

[2] = NMR-based stability analysis (hydrolysis of acyl hydrazone to aldehyde); type: physicochemical; settings: deuterated phosphate buffer pD = 7.9 with DMSO-d6, 24 h
Method: The formation of acyl hydrazones from aldehydes is a reversible reaction. […] The strongly divergent relative activities of the aldehydes 8a and 9a compared to the acyl hydrazones 8 and 9 imply that the activity of the acyl hydrazones is not a consequence of aldehyde formation.
Na2DPO4 (C/D/N Isotopes, 8.5 mM) and NaD2PO4 (C/D/N Isotopes, 3.3 mM) were dissolved in D2O to give a total phosphate concentration of 11.8 mM. The measured pH of 7.5 corresponds to a pD of 7.91 according to the literature.
This reduction tails off, consistent with the idea that inhibition of STAT3 by 8 is a slow but reversible process. An alternative explanation for time-dependent inhibition would be covalent modification of the Michael acceptor of the chromones by the protein. While we cannot formally exclude this possibility, two observations argue against cysteine alkylation as the […]
double bond of 8. B) Secondly, omission of the strong nucleophile dithiothreitol (DTT) from the assay […]
easily susceptible to covalent modification by nucleophiles. Data after 2 h of incubation are shown. C) Activity of 8 in a fluorescence polarization assay against wild-type STAT3 or a STAT3 Glu594Ala mutant after 2 h incubation in the presence of 1 mM DTT. […]

STAT3 Glu594Ala mutant = STAT3 Glu594Ala mutant (Homo sapiens, UniProt P40763, E594A); experiment: FP assay against STAT3 Glu594Ala mutant; type: binding
Sequence of STAT3 Glu594Ala mutant (P40763 whole entry E594A): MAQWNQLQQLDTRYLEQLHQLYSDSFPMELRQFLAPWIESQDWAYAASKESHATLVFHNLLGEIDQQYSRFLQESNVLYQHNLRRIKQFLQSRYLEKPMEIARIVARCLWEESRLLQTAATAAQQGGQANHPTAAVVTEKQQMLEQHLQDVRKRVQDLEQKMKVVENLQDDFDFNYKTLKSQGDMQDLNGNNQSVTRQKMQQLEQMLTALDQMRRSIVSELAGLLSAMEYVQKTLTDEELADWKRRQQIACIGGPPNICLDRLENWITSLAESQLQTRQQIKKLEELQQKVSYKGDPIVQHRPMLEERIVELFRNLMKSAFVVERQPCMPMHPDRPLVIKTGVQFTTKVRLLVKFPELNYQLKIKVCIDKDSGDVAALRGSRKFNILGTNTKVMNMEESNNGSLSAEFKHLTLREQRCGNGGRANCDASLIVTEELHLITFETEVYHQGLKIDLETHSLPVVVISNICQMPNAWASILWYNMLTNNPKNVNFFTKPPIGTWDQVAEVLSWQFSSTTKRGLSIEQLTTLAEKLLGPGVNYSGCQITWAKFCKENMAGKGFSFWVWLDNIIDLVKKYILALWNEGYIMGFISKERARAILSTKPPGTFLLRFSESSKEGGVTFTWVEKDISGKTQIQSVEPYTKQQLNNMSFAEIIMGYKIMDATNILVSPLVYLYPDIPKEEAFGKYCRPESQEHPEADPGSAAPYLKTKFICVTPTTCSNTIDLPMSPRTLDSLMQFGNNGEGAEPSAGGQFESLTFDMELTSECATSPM
Excerpt: The predicted (E)-trans-configuration of the acyl hydrazone moiety in the protein-bound state was also observed in the X-ray structure of crystals of 8 grown from ethyl acetate / hexane (Supplementary Fig. S4). Substantial conformational changes of the protein are required for ligand binding (Supplementary Fig. S3), a process which can account for the observed time-dependence of inhibition by 8 (Supplementary Fig. S5). […] Substitution of the pyridyl ring for electron-rich, five-membered heteroaromatic rings is tolerated (17–19). […] This behavior is consistent with hydrogen bonding between the molecules’ carbonyl group and the backbone amide of Gln635 as proposed by the docking studies (Fig. 2b), which is expected to suffer from electron-withdrawing substituents on the phenyl ring. Further evidence for hydrogen bonding arises from the inactivity of derivative 22, in which the carbonyl group has been deleted. Substitution of the carbonyl by a sulfonyl group (compound 23) is also not tolerated, indicating specific recognition of 8 by STAT3.
This reduction tails off, consistent with the idea that inhibition of STAT3 by 8 is a slow but reversible process. […]
easily susceptible to covalent modification by nucleophiles. […] C) Activity of 8 in a fluorescence polarization assay against wild-type STAT3 or a STAT3 Glu594Ala mutant after 2 h incubation in the presence of 1 mM DTT. […]

[3] = tested on: STAT1 Tyr701 phosphorylation; experiment: Western Blot, IFN-γ-stimulated STAT1 Tyr701 phosphorylation in HepG2 cells; type: cell-based, human; settings: 1 h pre-treatment, 15 min 50 ng/mL IFNγ
Excerpt: as §1, §2, §3

## CC(C)(C)c1ccc2occ(/C=N/NC(=O)c3cccnc3)c(=O)c2c1 [Compound 8]
[1]
  IL-6-stimulated STAT3 Tyr705 phosphorylation: inhibited
[2]
  hydrolysis to the aldehyde (1H-NMR): no sign of hydrolysis; also recorded: no sign of aldehyde release
STAT3 Glu594Ala mutant
  activity against STAT3 Glu594Ala mutant compared to wild-type STAT3: three-fold lower activity
STAT3 Glu594Ala mutant; 2 h incubation, 1 mM DTT, read-out: app. IC50 against STAT3 Glu594Ala mutant
  IC50: 27 ± 1 µM
[3]
  IFN-γ-stimulated phosphorylation of STAT1 Tyr701: inhibited to a lesser extent
